In patent publication US20140349923A1, “Compositions And Methods For Treating Diabetes And/Or Obesity” (GlaxoSmithKline Intellectual Property (No. 2) Limited, priority 2012, published 2014):

Assay: Chronic obesity efficacy study in DIO mice, chow ingredients with or without exendin-4 AlbudAb
Format: in vivo, DIO C57BL/6 mice
Protocol: Male diet induced obese (DIO) C57BL/6 mice (40-50 g body weight) and lean C57BL/6 mice (Taconic, Hudson, N.Y.) were used for the chronic obesity efficacy studies. The DIO mice were group housed and fed a high fat diet (60% fat by kcal) by the vendor from the time of weaning. Upon receipt at the GlaxoSmithKline Research Triangle Park facility, all mice were single-housed and maintained at constant temperature (approximately 22° C.) with 12 hr light/dark cycle (lights on from 5:00 AM to 5:00 PM). The mice were given ad libitum access to food (Research Diets D12451, 45 kcal % fat for DIO; Lab Diet 5001, 13.5 kcal % fat for lean) and water. All animal protocols were approved by the institutional animal care and use committee at GlaxoSmithKline in Research Triangle Park, N.C. The BCE, OFS, pectin, oleic acid, Nutella containing chows were prepared by mixing in a Hobart mixer with a whisk attachment and stored at 4° C. until used. Chows were fed to mice in glass jars with wire mesh column inserts (Unifab Corp., Kalamazoo, Mich.). […] All combination then were evaluated with and without co-treatment with exendin-4-albudAb. […] Body weights (BW) were measured on day −7 and then every 3 to 4 days for the duration of the study. On day 24, body composition was measured using quantitative magnetic resonance (QMR). […]

SMILES: CCCCCCCC/C=C\CCCCCCCC(=O)O [oleic acid]
- weight loss (% change in body weight) (26 days): −4.3%
- effect on weight compared to vehicle (Student's t-test): statistically significant weight loss
